Source: patent publication US6667340B1, “Inhibitors of phosphatidyl myo-inositol cycle” (Arizona Board of Regents on behalf of the University of …, priority 1998, dated 2003)
“And” between values parts separate entries of the source, which are not always exact repeats. Identical values can stand only once. “Also recorded” adds a separate entry of the source. Like-named read-outs stand apart in the source and are kept apart here.

Legend:
[1] = system: HT-29 colon cancer cells; assay: HT-29 colony formation in soft agarose; assay type: cell-based, human; conditions: for IC50: HT-29 colonies in soft agarose, 7 days exposure, mean of 3 determinations ± S.E.
Experimental: Specifically, anti-tumor activity was assessed by growing HT-29 colon cancer cells colonies in soft agarose which were then exposed to compounds according to the invention for 7 days and the colonies then counted.

[2] = system: HT-29 colon cancer cells; conditions: as reported earlier (J. Med. Chem. 1995; U.S. Pat. No. 5,227,508); read-out: IC50 for inhibition of colony formation by HT-29 human colon carcinoma cells; cited from earlier work
[3] = molecular target: T1, bovine brain p110/p85 PI-3-kinase (Bos taurus, UniProt P32871); assay: In vitro inhibition of bovine brain p110/p85 PI-3-kinase; assay type: biochemical
T1 construct: from tissue; host or cells: bovine brain
Source text: Schultz et al.; Anticancer Res., 15:1135-1140 (1995)).

[4] = system: bovine PI-PLC; assay: In vitro inhibition of bovine PI-PLC; assay type: biochemical
[5] = administered orally as well as parenterally; cited from earlier work
[6] = system: HT-29 human colon cancer; assay: Anti-tumor activity against established HT-29 human colon cancer in SCID mice; conditions: for T/C % / Tumor volume on day 10: qd 4-7; for Tumor volume on day 10: mean of 8 mice with S.E.
[7] = Preliminary toxicology in BALB/C mice; assay type: in vivo, male BALB/C mice; conditions: for Weight Change %: killed 24 hr after last dose
Experimental: In order to evaluate clinical safety, toxicity tests were conducted by administering DPI or OMDPI to groups of 4 male BALB/C mice daily by i.p. injection for 5 days at the maximum tolerated dose. […] Moreover, there was a 33% decrease in total white blood cell count. It should be noted, however, that this is not sufficient for a cytotoxic drug to be considered myelosuppresive.
As discussed, Table 4 contains the toxicity results obtained with groups of 4 male BALB/C mice, which were administered the compounds daily by i.p. injection for 5 days at the doses shown and killed 24 hr after the last dose. Values are mean±S.E. The p values are shown only where there was a significant difference to control.

[8] = molecular target: human Akt (Homo sapiens, UniProt P31749); assay: Inhibition of PDGF-stimulated Akt activation in transfected NIH 3T3 cells; assay type: cell-based; conditions: 6 hours exposure, listed as D-3-deoxy-PtdIns
[9] = system: MCF-7 human breast cancer xenografts; assay: in vivo; assay type: in vivo; conditions: for T/C: p<0.05
Source text: (§1) Also, the relative ability of D-3-deoxy-PtdIns and OMDPI, when administered i.p. as a daily micellar suspension to inhibit the growth of MCF-7 human breast cancer xenografts in SCID mice, was further evaluated. […] […]. These were the maximum tolerated doses that could be given by these schedules. […].

[10] = Aqueous solubility; assay type: physicochemical; conditions: aqueous with cosolvent or surfactant or cyclodextrin; in 0.1% Tween 20, opalescent solution
Source text: Therefore, OMDPI should be readily formulated for intravenous use, should this be determined to be the optimal route for clinical administration.

[11] = in vivo; assay type: in vivo; conditions: SCID, mouse, in vivo, ip, read-out: maximum tolerated dose
Source text: as §1

[12] = molecular target: PI-3kinase; conditions: previously found; cited from earlier work
[13] = 300 mg/kg i.p. daily for 5 days
[14] = 100 mg/kg i.p. daily for 5 days
[15] = 100 mg/kg i.p. daily for 5 days, listed as OMDPI
[16] = 100 mg/kg i.p. daily for 5 days, listed as deoxy-PtdIns Ether Lipid
[17] = maximum tolerated dose i.p. daily for 5 days

Sequence of human Akt (P31749 whole entry): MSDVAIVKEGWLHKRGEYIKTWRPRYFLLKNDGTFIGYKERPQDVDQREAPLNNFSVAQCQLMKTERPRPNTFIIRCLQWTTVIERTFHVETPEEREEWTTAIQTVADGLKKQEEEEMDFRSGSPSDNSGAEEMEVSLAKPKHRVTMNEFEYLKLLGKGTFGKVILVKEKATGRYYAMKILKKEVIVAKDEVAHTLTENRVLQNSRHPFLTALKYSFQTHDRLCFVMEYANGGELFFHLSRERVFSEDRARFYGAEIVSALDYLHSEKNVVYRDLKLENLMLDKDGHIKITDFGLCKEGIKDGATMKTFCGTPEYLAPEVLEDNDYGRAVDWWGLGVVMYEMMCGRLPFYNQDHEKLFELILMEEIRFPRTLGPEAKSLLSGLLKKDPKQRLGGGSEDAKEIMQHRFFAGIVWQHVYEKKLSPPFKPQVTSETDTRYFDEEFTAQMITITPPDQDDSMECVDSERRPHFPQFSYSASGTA
T1 sequence (P32871 whole entry): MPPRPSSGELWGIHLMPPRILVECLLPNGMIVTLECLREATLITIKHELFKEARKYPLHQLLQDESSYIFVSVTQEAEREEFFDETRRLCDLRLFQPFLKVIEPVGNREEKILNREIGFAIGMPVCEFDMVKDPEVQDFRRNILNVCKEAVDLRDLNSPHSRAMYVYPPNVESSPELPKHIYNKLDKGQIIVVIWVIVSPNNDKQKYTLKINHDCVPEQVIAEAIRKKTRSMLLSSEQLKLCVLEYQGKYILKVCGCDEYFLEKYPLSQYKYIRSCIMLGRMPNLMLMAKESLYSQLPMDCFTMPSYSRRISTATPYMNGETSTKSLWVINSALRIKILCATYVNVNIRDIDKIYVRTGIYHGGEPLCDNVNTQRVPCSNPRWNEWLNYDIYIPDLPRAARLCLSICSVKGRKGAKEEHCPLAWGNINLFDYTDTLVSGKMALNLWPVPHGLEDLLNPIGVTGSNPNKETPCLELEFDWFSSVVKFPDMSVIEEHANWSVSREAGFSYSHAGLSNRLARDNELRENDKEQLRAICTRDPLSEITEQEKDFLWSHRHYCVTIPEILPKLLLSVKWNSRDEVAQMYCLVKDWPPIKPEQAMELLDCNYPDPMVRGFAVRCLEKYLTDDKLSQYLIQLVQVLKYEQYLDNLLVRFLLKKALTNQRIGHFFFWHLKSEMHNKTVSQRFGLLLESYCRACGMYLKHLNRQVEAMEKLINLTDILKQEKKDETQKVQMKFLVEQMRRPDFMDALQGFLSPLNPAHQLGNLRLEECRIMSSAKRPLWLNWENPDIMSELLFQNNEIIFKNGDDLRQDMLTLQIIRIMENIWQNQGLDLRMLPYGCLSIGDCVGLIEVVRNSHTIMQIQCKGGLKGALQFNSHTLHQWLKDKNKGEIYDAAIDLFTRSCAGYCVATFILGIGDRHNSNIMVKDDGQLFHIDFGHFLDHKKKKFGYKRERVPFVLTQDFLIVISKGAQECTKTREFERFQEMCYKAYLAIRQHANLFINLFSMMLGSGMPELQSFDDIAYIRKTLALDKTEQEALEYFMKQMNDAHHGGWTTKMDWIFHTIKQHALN
T1 sequence (P23727 whole entry partner): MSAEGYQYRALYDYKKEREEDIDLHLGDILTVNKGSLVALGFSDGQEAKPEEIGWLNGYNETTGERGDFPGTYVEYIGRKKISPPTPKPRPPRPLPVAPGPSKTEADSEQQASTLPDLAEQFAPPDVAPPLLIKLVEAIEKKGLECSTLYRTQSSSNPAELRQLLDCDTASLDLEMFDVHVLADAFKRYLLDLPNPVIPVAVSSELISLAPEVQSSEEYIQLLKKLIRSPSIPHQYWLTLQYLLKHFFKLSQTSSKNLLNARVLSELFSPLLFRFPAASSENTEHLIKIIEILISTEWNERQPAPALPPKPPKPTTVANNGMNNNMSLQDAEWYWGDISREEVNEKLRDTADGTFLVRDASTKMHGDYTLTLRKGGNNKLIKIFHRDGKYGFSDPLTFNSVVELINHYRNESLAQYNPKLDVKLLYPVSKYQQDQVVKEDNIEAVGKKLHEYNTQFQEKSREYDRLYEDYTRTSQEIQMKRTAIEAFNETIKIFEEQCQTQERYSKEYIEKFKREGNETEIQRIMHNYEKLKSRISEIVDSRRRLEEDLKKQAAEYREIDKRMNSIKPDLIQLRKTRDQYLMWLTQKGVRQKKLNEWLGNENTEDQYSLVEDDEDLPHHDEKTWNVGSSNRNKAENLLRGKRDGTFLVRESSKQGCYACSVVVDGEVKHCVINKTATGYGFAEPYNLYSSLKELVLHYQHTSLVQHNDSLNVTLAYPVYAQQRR

Work on 2,3-dideoxy-PtdIns yielded an IC50 [1] of 50 ± 7 µM.
In the case of CCCCCCCCCCCCCCCC(=O)OCC(COP(=O)(O)OC1C(O)C(O)C(O)C(F)C1O)OC(=O)CCCCCCCCCCCCCCC (centres unmarked) [(35), 3-Fluoro-3-deoxy-PtdIns, reference compound], the IC50 [2] is listed as 37 µM and the IC50 [1] is listed as 37 µM.
With CCCCCCCCCCCCCCCC(=O)OCC(CCP(=O)(O)OC1C(O)CC(O)C(O)C1O)OC(=O)CCCCCCCCCCCCCCC [(50), 1-O-[(3S)-3,4-bis(palmitoyloxy)butylphosphonyl]-1D-3-deoxy-myo-inositol] the “fold increase in growth inhibitory activity compared to DPI” value ([1]; HT-29 colony formation, versus (30)) was > 3 fold and ~3 fold, the IC50 ([1]; Homo sapiens, 168 h) was 10 µM and the “PI-3-K IC50” value [3] was “N/A (N/A = not active, with <20% inhibition at 100 gM.)”. The “PtdIns-PLC IC50” value [4] was “N/A (N/A = not active, with <20% inhibition at 100 gM.)”.
In the case of CCCCCCCCCCCCCCCCOP(=O)([O-])OCC[N+](C)(C)C [mitelfosine, hexadecylphosphocholine], the clinical anti-tumor activity [5] is listed as “have shown clinical anti-tumor activity”.
For CCCCCCCCCCCCCCCC(=O)OCC(COP(=O)(O)OC1C(O)CC(O)C(O)C1O)OC(=O)CCCCCCCCCCCCCCC (centres unmarked) [(30), 3-deoxy-phosphatidyl-myo-inositol, reference compound], the T/C % ([6]; 250 mg/kg i.p.) was 111.1%, the “Tumor volume on day 10” value ([6]; 250 mg/kg i.p.) was 0.30 ± 0.06 cm^3 and the lethality ([6]; 500 mg/kg i.p., qd 4-5) was “lethal”. For the same molecule, the anti-tumor activity ([6]; half of 500 mg/kg daily i.p.) was “no anti-tumor activity”, the IC50 [2] was 35 µM and the IC50 [1] was 35 µM. The ALT [7, 13] was 30.5, the BUN [7, 13] was 15.7 and the “Platelets × 10^6” value [7, 13] was 0.9 × 10^6. The “Total Protein” value [7, 13] was 4.6, the White blood cells [7, 13] was 7.9 and the “Weight Change %” value [7, 13] was −4.3 ± 1.9%. The Akt activation [8] was “blocks the activation of Akt; also recorded: blocked Akt activation”, the T/C ([9]; i.p. daily micellar suspension, dose not given) was 62% and the “PtdIns-PLC IC50” value [4] was “N/A (N/A = not active, with <20% inhibition at 100 gM.)”.
In the case of CCCCCCCCCCCCCCCCCCOCC(COP(=O)(O)OC1C(O)CC(O)C(O)C1O)OC (centres unmarked) [(60), 1-O-(2-O-methyl-1-O-octadecyl-sn-glycero-3-phospho)-1D-3-deoxy-myo-inositol], the T/C % ([6]; 50 mg/kg i.p.) is reported as 103.7%, the “Tumor volume on day 10” value ([6]; 50 mg/kg i.p.) is reported as 0.258 ± 0.05 cm^3 and the T/C % ([6]; 100 mg/kg i.p.) is reported as 118.0%. For the same molecule, the “Tumor volume on day 10” value ([6]; 100 mg/kg i.p.) was 0.32 ± 0.09 cm^3, the T/C % ([6]; 150 mg/kg i.p.) was 33.3% and the “Tumor volume on day 10” value ([6]; 150 mg/kg i.p.) was 0.09 ± 0.07 cm^3. The “toxicity at the highest dose tested” value ([6]; 150 mg/kg per day i.p.) was “not toxic”, the “inhibition of tumor growth” value ([6]; 150 mg/kg per day, 4 daily i.p. injections) was 67% and the anti-tumor activity ([6]; 100 and 50 mg/kg per day i.p.) was “did not elicit anti-tumor activity”. For the same molecule, the solubility [10] was ≥ 10000 µg/mL, the IC50 ([1]; listed as OMDPI (60)) was 2.1 ± 0.1 µM and the IC50 ([1]; Homo sapiens, HT-29, 168 h) was 2 µM. The ALT [7, 14] was 32.7, the BUN [7, 14] was 18.7 and the “Total Protein” value [7, 14] was 4.9. For the same molecule, the White blood cells [7, 14] was 5.8, the “Weight Change %” value [7, 15] was “no effect” and the “Weight Change %” value [7, 16] was “+2.3 ± 1.5%”. For the same molecule, the “Platelets × 10^6” value [7, 15] was “no effect”, the “Platelets × 10^6” value [7, 16] was 0.9 × 10^6 and the “liver, renal toxicity” value ([7]; in words) was “not liver or renal toxic”. For the same molecule, the myelosuppression ([7]; in words) was “only weakly myelosuppresive”, the “decrease in total white blood cell count” value [7, 17] was 33% and the “serum liver or kidney enzymes” value [7, 17] was “did not result in elevation”. For the same molecule, the T/C ([9]; 75 mg/kg i.p. for 10 days) was 20%, the T/C ([9]; 100 mg/kg i.p. for 5 days) was 39% and the “inhibition of the growth of MCF-7 breast cancer” value ([9]; 4 or 5 day daily i.p. schedule) was 60%. The “inhibition of the growth of MCF-7 breast cancer xenografts” value ([9]; 10 day schedule) was 80%, the MTD at 5 days ([11]; daily i.p. for 5 days) was 100 mg/kg and the MTD at 10 days ([11]; daily i.p. for 10 days) was 75 mg/kg.
CCCCCCCCCCCCCCCCCCOCC(CCP(=O)(O)OC1C(O)CC(O)C(O)C1O)OC [(90), 1-O-[(3S)-methoxy-4-(octadecyloxy)butylphosphonyl]-1D-3-deoxy-myo-inositol] showed an IC50 ([1]; Homo sapiens, 168 h) of 45 µM.
With O=P1(N(CCCl)CCCl)NCCCO1 (centres unmarked) [cyclophosphamide, reference compound] the “inhibition of the growth of MCF-7 xenografts” value ([9]; 265 mg/kg on day 5, positive control) was 43%.
With “3-chloro-3-deoxy-PtdIns [reference compound]” the “growth inhibition at maximum tested concentration” value ([1]; HT-29 colony formation) was < 20%.
For CCCCCCCCCCCCCCCCCCOC[C@H](COP(=O)(O)OC1C(O)C(O)C(O)C(O)C1O)OC (some centres unmarked) [1-O-octadecyl-2-O-methyl-sn-glycero-3-phospho-myo-inositol], the “inhibition of cancer cell growth” value ([1]; in words) is given as “only a weak inhibitor”, the IC50 [12] is given as 90 µM and the “PI-PLC IC50” value ([4]; same assay conditions as Table 2) is given as “poor inhibitor”.
